According to patent US6333424A, “Therapeutic derivatives of diphosphonates” (priority 1999, dated 2001):
In brackets after ≈: the same amount, converted by molar mass. Read-outs that look alike come from different tables or passages of the source.

Legend:
Experiment in all cases: MIC by agar dilution method
Assay type in all cases: cell-based
[1] = test system: Staphylococcus aureus ATCC 25923
[2] = test system: Staphylococcus epidermis OKI 110001; settings: OKI110001
[3] = test system: Escherichia coli OKI 35034
[4] = test system: Proteus vulgaris OKI 60002
[5] = test system: Pseudomonas aeruginosa ATCC 27853; settings: ATCC27853
[6] = test system: Helicobacter pylori 27604
[7] = test system: Helicobacter pylori 27606
[8] = test system: Streptococcus fecalis OKI 80171; settings: OKI80171, Streptococcus fecalis OKI 80171, agar dilution
[9] = test system: Salmonella typhi OKI 10084; settings: Salmonella enterica, Salmonella typhi OKI 10084, agar dilution
[10] = ATCC25923, Staphylococcus aureus ATCC 25923, agar dilution, read-out: MIC
[11] = Escherichia coli, OKI35034, Escherichia coli OKI 35034, agar dilution, read-out: MIC
[12] = Proteus vulgaris, OKI60002, Proteus vulgaris OKI 60002, agar dilution, read-out: MIC
[13] = Helicobacter pylori 27604, agar dilution, read-out: MIC
[14] = Helicobacter pylori 27606, agar dilution, read-out: MIC

| MIC ([2]; Staphylococcus epidermis OKI 110001, agar dilution, read-out: MIC) | MIC ([3]; Escherichia coli OKI 35034, agar dilution) | MIC ([4]; Proteus vulgaris OKI 60002, agar dilution) | MIC ([5]; Pseudomonas aeruginosa ATCC 27853, agar dilution, read-out: MIC) | SMILES | MIC [1, 10] | MIC [3, 11] | MIC [4, 12] | MIC [6, 13] | MIC [7, 14] | MIC ([1]; ATCC25923) | MIC ([2]; Staphylococcus) | MIC [8] | MIC ([9]; read-out: MIC) | MIC ([3]; Escherichia coli, OKI35034, Escherichia coli OKI 35034, agar dilution) | MIC ([4]; Proteus vulgaris, OKI60002) | MIC ([5]; Pseudomonas aeruginosa) | MIC ([6]; Helicobacter pylori, 27604) | MIC ([7]; Helicobacter pylori, 27606) | MIC ([9]; TYPHI) |
| --- | --- | --- | --- | --- | --- | --- | --- | --- | --- | --- | --- | --- | --- | --- | --- | --- | --- | --- | --- |
| ≥ 0.39 µg/mL | 50 µg/mL (≈ 137 µM) | 100 µg/mL (≈ 274 µM) | > 100 µg/mL | CC1(C)S[C@@H]2[C@H](NC(=O)[C@H](N)c3ccc(O)cc3)C(=O)N2[C@H]1C(=O)O [Amoxicillin, amoxicillin] | ≥ 0.39 µg/mL | 25 µg/mL (≈ 68.4 µM) | 50 µg/mL (≈ 137 µM) | ≥ 0.39 µg/mL | ≥ 0.39 µg/mL |  |  |  |  |  |  |  |  |  |  |
|  |  |  |  | CCOP(=O)(OCC)C(CSCC(=O)OCOC(=O)N1CCN(c2cc3c(cc2F)c(=O)c(C(=O)O)cn3CC)CC1)P(=O)(OCC)OCC [Example 1 B, 7-(4-((2,2-Bis-(diethoxyphosphoryl)-ethylsulfanyl)-acetoxymethoxycarbonyl)-piperazin-1-yl)-1-ethyl-6-fluoro-4-oxo-1,4-dihydroquinoline-3-carboxylic acid] |  |  |  |  |  | 6.25 µg/mL (≈ 8.14 µM) | 1.56 µg/mL (≈ 2.03 µM) | 12.5 µg/mL (≈ 16.3 µM) | ≥ 0.78 µg/mL | ≥ 0.39 µg/mL | 1.56 µg/mL (≈ 2.03 µM) | 12.5 µg/mL (≈ 16.3 µM) | 6.25 µg/mL (≈ 8.14 µM) | 3.12 µg/mL (≈ 4.06 µM) |  |
|  |  |  |  | CCn1cc(C(=O)O)c(=O)c2cc(F)c(N3CCNCC3)cc21 [Norfloxacin, norfloxacin] | 6.25 µg/mL (≈ 19.6 µM) | ≥ 0.39 µg/mL | 0.78 µg/mL (≈ 2.44 µM) | 6.25 µg/mL (≈ 19.6 µM) | 6.25 µg/mL (≈ 19.6 µM) |  | 1.56 µg/mL (≈ 4.89 µM) | 12.5 µg/mL (≈ 39.1 µM) |  |  |  | 12.5 µg/mL (≈ 39.1 µM) |  |  | ≥ 0.39 µg/mL |
